Results from patent US6664244B1, “Pet foods” (Nihon Shokuhin Kako Co., Ltd., priority 1998, dated 2003).

Legend:
[1] = test system: beagles; assay: Experiments on suppression of obesity (body weight change, high-fat feed); format: in vivo; details: healthy beagles; Hills c/d Dry 200 g + lard 117 g basic feed, corn starch replaced with 23.4 g β-CD; about 400 kcal per metabolic body weight per day; vs reference group (FIG. 1)
Method: Ten healthy beagles were divided in 2 groups consisting of 5, respectively. Hills c/d Dry were fed for 1 week before the experiment. As for feeds in this experiment, the one in which 200 g of Hills c/d Dry blended with 117 g of lard was used as a basic feed. In the reference group, the one in which 34 g of cornstarch was added to the above basic feed is used. In the experimental group, the feed used is the same one as used in the reference group except that all corn starch was replaced with 23.4 g of β-CD (β-cyclodextrin). The feeding amount for one dog, per day, was controlled without changing the ratio of components so that the amount of the basic feed (Hills c/d Dry and lard) is about 400 kcal per metabolic body weight (kg0.75)

[2] = test system: beagles; assay: Experiments on solution of obesity (body weight change in obese beagles); format: in vivo; details: beagles made obese by 2 months of high-energy foods; feed with 23.4 g corn starch replaced with β-CD; about 275 kcal per metabolic body weight per day (FIG. 2)
Description: Ten beagles were fed high-energy foods for 2 months before the experiment, so that they became obese. At the beginning of the experiment, they were divided in […] so as to make uniform the average body weight of each group as much as possible. The feed used in the reference group was the same as that of Experiment 1 and the same feed in which 23.4 g of corn starch was replaced with β-CD was used in the β-CD group. The feeding amount for one dog, per day was controlled without changing the ratio of components so that the amount of the basic feed (Hills c/d Dry and lard) is about 275 kcal per metabolic body weight (kg0.75).

OC[C@H]1O[C@@H]2O[C@H]3[C@H](O)[C@@H](O)[C@@H](O[C@H]4[C@H](O)[C@@H](O)[C@@H](O[C@H]5[C@H](O)[C@@H](O)[C@@H](O[C@H]6[C@H](O)[C@@H](O)[C@@H](O[C@H]7[C@H](O)[C@@H](O)[C@@H](O[C@H]8[C@H](O)[C@@H](O)[C@@H](O[C@H]1[C@H](O)[C@H]2O)O[C@@H]8CO)O[C@@H]7CO)O[C@@H]6CO)O[C@@H]5CO)O[C@@H]4CO)O[C@@H]3CO [β-CD, β-cyclodextrin]
increase of body weight [1]: significantly suppressed
body weight [2]: significantly reduced
